The record followed here is patent publication US10894772B2, “Flavor modulator having pyridine derivative or salt thereof as active ingredient” (T. HASEGAWA CO., LTD., priority 2015, dated 2021).

Structures are written as SMILES.

What all share (type): in vivo
For assay [1], the system named is panelists. Kind of assay: Addition to soup broth for udon noodle. The note with it: 0.05 ppm added to commercial soup broth for udon noodle; 100 ml diluted with 200 ml hot water; 5 panelists. The method, then: 0.05 ppm of any of the invention products 1 to 6 was added to commercially-available soup broth for udon noodle (tripe strength). 200 ml of hot water was added to 100 ml of each of the added soup broth and the non-added soup broth, and well-trained 5 panelists tasted them for organoleptic evaluation in point of umami.
0.05 ppm of 2-(3-benzyloxypropyl)pyridine (invention product 101) was added to commercially-available soup broth for udon noodle (tripe strength). 200 ml of hot water was added to 100 ml of each of the added soup broth and the non-added soup broth, and well-trained 5 panelists tasted them for organoleptic evaluation in point of umami.
0.05 ppm as 2-(3-benzyloxypropyl)pyridine therein of the invention product 201 was added to commercially-available soup broth for udon noodle (tripe strength). 200 ml of hot water was added to 100 ml of each of the added soup broth and the non-added soup broth, and well-trained 5 panelists tasted them for organoleptic evaluation in point of umami.

Assay [2] relates to panelists. Kind of assay: Confirmation of umami enhancing effect in sodium inosinate solution. The note with it: 10 ppb added to aqueous 0.1 mass % sodium inosinate solution; 5 panelists. The source says: Well-trained 5 panelists tasted an aqueous solution of 0.1 mass % sodium inosinate (5′-IMP⋅2Na), and aqueous solutions prepared by adding to the aqueous 0.1 mass % sodium inosinate solution, 10 ppb of any of the invention products 1 to 6, for organoleptic evaluation in point of umami.
Well-trained 5 panelists tasted an aqueous solution of 0.1 mass % sodium inosinate (5′-IMP⋅2Na), and an aqueous solution prepared by adding thereto 10 ppb of 2-(3-benzyloxypropyl)pyridine (invention product 101), for organoleptic evaluation in point of umami.
Well-trained 5 panelists tasted (1) 0.1 mass % sodium inosinate (5′-IMP⋅2Na) and (2) an aqueous solution of 0.1 mass % sodium inosinate and 5 ppb, as 2-(3-benzyloxypropyl)pyridine therein, of the invention product 201, for organoleptic evaluation in point of umami.

Assay [3] has as its system panelists. Kind of assay: Confirmation of sweetness enhancing effect in sucrose solution. The note with it: 5 ppb added to aqueous 3 mass % sucrose solution; 5 panelists. From the text:
Well-trained 5 panelists tasted an aqueous 3 mass % sucrose solution, and aqueous solutions prepared by adding to the aqueous 3 mass % sucrose solution, 5 ppb of any of the invention products 1 to 6, for organoleptic evaluation in point of sweetness.
Well-trained 5 panelists tasted an aqueous 3 mass % sucrose solution, and an aqueous solution prepared by adding thereto 5 ppb of 2-(3-benzyloxypropyl)pyridine (invention product 101), for organoleptic evaluation in point of sweetness.
Well-trained 5 panelists tasted (1) an aqueous 3 mass % sucrose solution and (2) an aqueous solution prepared by adding […], as 2-(3-benzyloxypropyl)pyridine therein, of the invention product 201 to the aqueous 3 mass % sucrose solution, for organoleptic evaluation in point of sweetness.

Assay [4] concerns panelists. Kind of assay: Flavor evaluation of ethanol solution (bottle mouth and flavor paper). The note with it: 0.1% ethanol solution, average evaluation of 5 panelists. The method, then:
A […] ethanol solution of the invention products 1 to 6 prepared in Examples 1 to 6 was prepared as an evaluation solution. The evaluation solution was prepared in a sample bottle. Regarding the flavor of the sample smelling from the bottle mouth and the flavor of a flavor paper prepared by infiltrating the evaluation solution into a paper, well-trained 5 panelists tested the solution for flavor evaluation.
A 0.1% ethanol solution of the invention product 101 (2-(3-benzyloxypropyl)pyridine) prepared in Example 101 was prepared as an evaluation solution. The evaluation solution was prepared in a sample bottle. Regarding the flavor of the sample smelling from the bottle mouth and the flavor of a flavor paper prepared by infiltrating the evaluation solution into a paper, well-trained 5 panelists tested the solution for flavor evaluation. A typical evaluation of the product is as follows.

For assay [5], the system named is panelists. As to the kind of experiment: Confirmation of umami and saltiness enhancement in edible salt and MSG solution. The note with it: 10 ppb added to aqueous 0.3 mass % edible salt and 0.03 mass % sodium glutamate (MSG); 5 panelists. The source says: Well-trained 5 panelists tasted an aqueous solution of 0.3 mass % edible salt and 0.03 mass % sodium glutamate (MSG), and aqueous solutions prepared by adding to the aqueous solution, 10 ppb of any of the invention products 1 to 6, for organoleptic evaluation in point of umami and saltiness enhancement.
Well-trained 5 panelists tasted an aqueous solution of 0.3 mass % edible salt and 0.03 mass % sodium glutamate (MSG), and an aqueous solution prepared by adding to the aqueous solution, 10 ppb of 2-(3-benzyloxypropyl)pyridine (invention product 101), for organoleptic evaluation in point of umami and saltiness enhancement.
Well-trained 5 panelists tasted an aqueous solution of 0.3 mass % edible salt and 0.03 mass % sodium glutamate (MSG), and an aqueous solution prepared by adding to the aqueous solution, 10 ppb, as 2-(3-benzyloxypropyl)pyridine therein, of the invention product 201 or the reference product 202, for organoleptic evaluation in point of umami and saltiness enhancement.

In assay [6] the test system is panelists. As to the kind of experiment: Confirmation of umami imparting and saltiness enhancing effect in 0.3 mass % sodium chloride (evaluation in words). The method, then: An aqueous 0.3 mass % sodium chloride solution (control), and solutions of 2-(3-benzyloxypropyl)pyridine dissolved in a 0.3 mass % sodium chloride solution to have the concentration shown in Table 17 were prepared. As comparative products, an aqueous 0.3 mass % sodium chloride solution (control), and a solution of a comparative product, 2-(2-benzyloxyethyl)pyridine dissolved in a 0.3 mass % sodium chloride solution to have the same concentration were prepared. Well-trained 5 panelists tasted the solutions for organoleptic evaluation of umami impartment and saltiness enhancement.
An aqueous 0.3 mass % sodium chloride solution (control), and solutions of the invention product 201 or the reference product 202 dissolved in a 0.3 mass % sodium chloride solution to have the concentration as 2-(3-benzyloxypropyl)pyridine therein shown in the following Table 23 were prepared. Well-trained 5 panelists tasted the solutions for organoleptic evaluation of umami impartment and saltiness enhancement.

Assay [7] deals with panelists. As to the kind of experiment: Confirmation of umami in water (organoleptic evaluation of taste and flavor in words). The following applies: for Organoleptic Evaluation Taste / Organoleptic Evaluation Flavor: average of 5 panelists. The method, then:
A solution was prepared by dissolving 2-(3-benzyloxypropyl)pyridine (invention product 101) in water to have a concentration shown in Table 15. As a comparative product, a solution was prepared by dissolving 2-(2-benzyloxyethyl)pyridine (comparative product 1 prepared in Comparative Example 1) to have the same concentration. Well-trained 5 panelists tasted the solutions and non-added water for organoleptic evaluation of taste and flavor.
The invention product 101 and the comparative product 1 were individually diluted with ethanol to have a proper concentration, and then further diluted with water to prepare an aqueous solution of 2-(3-benzyloxypropyl)pyridine (invention product 101 produced in Example 101) and that of 2-(2-benzyloxyethyl)pyridine (comparative product synthesized in Comparative Example 1) each having a concentration shown in the following Table 21. Well-trained panelists tasted the solution having a different concentration and non-added water for organoleptic evaluation in point of taste and flavor. […]

Assay [8] concerns panelists. Kind of assay: Confirmation of umami enhancing effect: comparison with edible salt and 0.05 mass % MSG solution. The following applies: 10 ppb with 0.3 mass % edible salt in water; 5 panelists; Example 110. The source says: Well-trained 5 panelists tasted an aqueous solution of 0.3 mass % edible salt and 0.05 mass % sodium glutamate (MSG), and an aqueous solution of 0.3 mass edible salt and 10 ppb of 2-(3-benzyloxypropyl)pyridine (invention product 101), for organoleptic evaluation of umami.
Well-trained 5 panelists tasted (1) an aqueous solution of 0.3 mass % edible salt and 0.05 mass % sodium glutamate (MSG), and (2) and an aqueous solution of 0.3 mass % edible salt and […], as 2-(3-benzyloxypropyl)pyridine therein, of the invention product 201, for organoleptic evaluation in point of umami.

Setting [9] is: in 0.3 mass % sodium chloride solution, Example 108.
The mark [10] stands for this setting: aqueous solution, Reference Example 201.

As to `c1ccc(COCCCc2ccccn2)cc1` [invention product 101, 2-(3-benzyloxypropyl)pyridine], the “umami, saltiness and sweetness compared with non-added soup broth” value in the assay with panelists [1] was “stronger umami, saltiness and sweetness”. Further, the “umami compared with the non-added solution” value in the assay on panelists [2] is “stronger umami”. Moreover, in the assay on panelists [3], the “sweetness compared with the non-added solution” value is “stronger sweetness”. The Flavor Evaluation result in the assay on panelists [4] was “somewhat herbal, green and nutty flavor of natural impression”. For the same molecule, in the assay with panelists [5], the “umami and saltiness compared with the non-added solution” value was “stronger umami and saltiness”. Besides, the “Organoleptic Evaluation (umami impartment and saltiness enhancement)” value in the assay on panelists [6] (1 ppb in 0.3 mass % sodium chloride solution, average of 5 panelists, Example 108) is “Slightly umami as compared with control”. The “concentration providing umami in 0.3 mass % sodium chloride solution relative to that of the solution in water” value in the assay with panelists [6] (Example 108) and in the assay with panelists [6] (Example 203) was “about 1/10” throughout. Further, the “concentration to realize the same degree of umami intensity relative to that of 2-(2-benzyloxyethyl)pyridine” value in the assay on panelists [6] (setting [9]) is “about 1/10”. Further, the “umami imparting effect relative to 2-(2-benzyloxyethyl)pyridine (comparative product 1)” value with panelists [6] (setting [9]) is given as “about 10 times”. The “Organoleptic Evaluation Taste” value with panelists [7] (0.1 ppm dissolved in water, Example 107) is “Weakly umami”; in the assay with panelists [7] (0.1 ppm, diluted with ethanol, then with water, Reference Example 201), “Weakly umami”; in the assay with panelists [7] (10 ppb dissolved in water, Example 107) it was “Slightly umami”; with panelists [7] (10 ppb, diluted with ethanol, then with water, Reference Example 201), “Slightly umami”; in the assay with panelists [7] (20 ppm dissolved in water, Example 107) it was “Strongly umami”; in the assay on panelists [7] (20 ppm, diluted with ethanol, then with water, Reference Example 201) it was “Strongly umami”. Besides, the “Organoleptic Evaluation Flavor” value in the assay on panelists [7] (2 ppb dissolved in water, Example 107) is on record as “Nothing at all”; in the assay with panelists [7] (2 ppb, diluted with ethanol, then with water, Reference Example 201), “Nothing at all”. In addition, the “concentration to provide the same umami intensity relative to that of 2-(2-benzyloxyethyl)pyridine” value is reported as “about 1/10” in the assay on panelists [7] (setting [10]) and “about 1/10” with panelists [7] (in water, Example 107). Further, the “umami imparting effect relative to 2-(2-benzyloxyethyl)pyridine” value in the assay with panelists [7] (setting [10]) is about 10 times. Besides, the “umami compared with aqueous 0.3 mass % edible salt and 0.05 mass % sodium glutamate (MSG)” value with panelists [8] is listed as “umami of almost the same level”.
